Measurements reported in PubChem BioAssay AID2060613 (Molecular Pharmacology Branch, DTP, NCI, 2025).

System: 233499-124-R-J3-PDC complex spheroid viability
Test: Anticancer human tumor 233499-124-R-J3-PDC patient-derived colon adenocarcinoma cell line growth inhibition [CLK]
Conditions: for IC50: curve of first compound; for viability, T/C: stronger effect = lower value
Summary of the method: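 Multi-cell-type spheroids combined patient-derived tumor cells with HUVEC endothelial cells and human mesenchymal stem cells. Paired agents were dosed in half-log steps down from about clinical Cmax, or from 10 microM where Cmax was unknown.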

[1] = second compound 0.0316 µM, first compound 0.0316 µM
[2] = second compound 0.0316 µM, first compound 0.1 µM
[3] = second compound 0.0316 µM, first compound 0.316 µM
[4] = second compound 0.0316 µM, first compound 1 µM
[5] = second compound 0.0316 µM, first compound 3.16 µM
[6] = second compound 0.0316 µM, first compound 10 µM
[7] = second compound 0.1 µM, first compound 0.0316 µM
[8] = second compound 0.1 µM, first compound 0.1 µM
[9] = second compound 0.1 µM, first compound 0.316 µM
[10] = second compound 0.1 µM, first compound 1 µM
[11] = second compound 0.1 µM, first compound 3.16 µM
[12] = second compound 0.1 µM, first compound 10 µM
[13] = second compound 0.316 µM, first compound 0.0316 µM
[14] = second compound 0.316 µM, first compound 0.1 µM
[15] = second compound 0.316 µM, first compound 0.316 µM
[16] = second compound 0.316 µM, first compound 1 µM
[17] = second compound 0.316 µM, first compound 3.16 µM
[18] = second compound 0.316 µM, first compound 10 µM
[19] = second compound 1 µM, first compound 0.0316 µM
[20] = second compound 1 µM, first compound 0.1 µM
[21] = second compound 1 µM, first compound 0.316 µM
[22] = second compound 1 µM, first compound 1 µM
[23] = second compound 1 µM, first compound 3.16 µM
[24] = second compound 1 µM, first compound 10 µM
[25] = second compound 3.16 µM, first compound 0.0316 µM
[26] = second compound 3.16 µM, first compound 0.1 µM
[27] = second compound 3.16 µM, first compound 0.316 µM
[28] = second compound 3.16 µM, first compound 1 µM
[29] = second compound 3.16 µM, first compound 3.16 µM
[30] = second compound 3.16 µM, first compound 10 µM
[31] = second compound 10 µM, first compound 0.0316 µM
[32] = second compound 10 µM, first compound 0.1 µM
[33] = second compound 10 µM, first compound 0.316 µM
[34] = second compound 10 µM, first compound 1 µM
[35] = second compound 10 µM, first compound 3.16 µM
[36] = second compound 10 µM, first compound 10 µM
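Note: spheroids exposed to the drug combinations for seven days.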
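Throughout, for viability, T/C: percent viability relative to DMSO vehicle control wells taken as 100%.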

Compound: Nc1ccn(C2OC(CO)C(O)C2(F)F)c(=O)n1 (stereo unspecified) + CNC(=O)c1ccc(Nc2nc(OC3CCCC3)c3c(-c4ccc5nc(C)oc5c4)c[nH]c3n2)c(OC)c1
- IC50 (second compound 0.0316 µM): 0.0713 µM
- IC50 (second compound 0.1 µM): 0.125 µM
- IC50 (second compound 0.316 µM): 0.121 µM
- IC50 (second compound 1 µM): 0.0424 µM
- IC50 (second compound 3.16 µM): 0.0399 µM
- IC50 (second compound 10 µM): 0.0441 µM
- viability, T/C [1]: 80.5%
- viability, T/C [2]: 37.3%
- viability, T/C [3]: 11.7%
- viability, T/C [4]: 13.9%
- viability, T/C [5]: 22.5%
- viability, T/C [6]: 13.7%
- viability, T/C [7]: 56.8%
- viability, T/C [8]: 57.8%
- viability, T/C [9]: 18.3%
- viability, T/C [10]: 22%
- viability, T/C [11]: 18.2%
- viability, T/C [12]: 18.3%
- viability, T/C [13]: 65.2%
- viability, T/C [14]: 56.8%
- viability, T/C [15]: 15.7%
- viability, T/C [16]: 8.6%
- viability, T/C [17]: 14.8%
- viability, T/C [18]: 14.3%
- viability, T/C [19]: 63%
- viability, T/C [20]: 12%
- viability, T/C [21]: 13.7%
- viability, T/C [22]: 9.36%
- viability, T/C [23]: 10.2%
- viability, T/C [24]: 8.84%
- viability, T/C [25]: 53.5%
- viability, T/C [26]: 36%
- viability, T/C [27]: 11.4%
- viability, T/C [28]: 5.38%
- viability, T/C [29]: 6.79%
- viability, T/C [30]: 5.11%
- viability, T/C [31]: 53.4%
- viability, T/C [32]: 41.7%
- viability, T/C [33]: 11.5%
- viability, T/C [34]: 6.13%
- viability, T/C [35]: 5.83%
- viability, T/C [36]: 4.84%

Compound: CCc1c2c(nc3ccc(O)cc13)-c1cc3c(c(=O)n1C2)COC(=O)[C@]3(O)CC + CNC(=O)c1ccc(Nc2nc(OC3CCCC3)c3c(-c4ccc5nc(C)oc5c4)c[nH]c3n2)c(OC)c1
- IC50 (second compound 0.0316 µM): 0.114 µM
- IC50 (second compound 0.1 µM): 0.0345 µM
- IC50 (second compound 0.316 µM): 0.0158 µM
- IC50 (second compound 1 µM): 0.0152 µM
- IC50 (second compound 3.16 µM): 0.00468 µM
- IC50 (second compound 10 µM): < 0.00316 µM
- viability, T/C (second compound 0.0316 µM, first compound 0.00316 µM): 76%
- viability, T/C (second compound 0.0316 µM, first compound 0.01 µM): 56.8%
- viability, T/C [1]: 55%
- viability, T/C [2]: 61.8%
- viability, T/C [3]: 34.7%
- viability, T/C [4]: 18.3%
- viability, T/C (second compound 0.1 µM, first compound 0.00316 µM): 57.5%
- viability, T/C (second compound 0.1 µM, first compound 0.01 µM): 53.8%
- viability, T/C [7]: 47.3%
- viability, T/C [8]: 46.6%
- viability, T/C [9]: 31.1%
- viability, T/C [10]: 11.6%
- viability, T/C (second compound 0.316 µM, first compound 0.00316 µM): 65.5%
- viability, T/C (second compound 0.316 µM, first compound 0.01 µM): 50%
- viability, T/C [13]: 38.4%
- viability, T/C [14]: 45.1%
- viability, T/C [15]: 19.6%
- viability, T/C [16]: 11.3%
- viability, T/C (second compound 1 µM, first compound 0.00316 µM): 63%
- viability, T/C (second compound 1 µM, first compound 0.01 µM): 49.8%
- viability, T/C [19]: 40.2%
- viability, T/C [20]: 53.6%
- viability, T/C [21]: 12.3%
- viability, T/C [22]: 5.66%
- viability, T/C (second compound 3.16 µM, first compound 0.00316 µM): 50.9%
- viability, T/C (second compound 3.16 µM, first compound 0.01 µM): 48.6%
- viability, T/C [25]: 25.6%
- viability, T/C [26]: 18%
- viability, T/C [27]: 6.64%
- viability, T/C [28]: 5.12%
- viability, T/C (second compound 10 µM, first compound 0.00316 µM): 51%
- viability, T/C (second compound 10 µM, first compound 0.01 µM): 32.3%
- viability, T/C [31]: 35.1%
- viability, T/C [32]: 17.8%
- viability, T/C [33]: 8.94%
- viability, T/C [34]: 2.94%

Compound: O=C(c1cc(Cc2n[nH]c(=O)c3ccccc23)ccc1F)N1CCN(C(=O)C2CC2)CC1 + CNC(=O)c1ccc(Nc2nc(OC3CCCC3)c3c(-c4ccc5nc(C)oc5c4)c[nH]c3n2)c(OC)c1
- IC50 (second compound 0.0316 µM): > 10 µM
- IC50 (second compound 0.1 µM): > 10 µM
- IC50 (second compound 0.316 µM): > 10 µM
- IC50 (second compound 1 µM): > 10 µM
- IC50 (second compound 3.16 µM): > 10 µM
- IC50 (second compound 10 µM): > 10 µM
- viability, T/C [1]: 96%
- viability, T/C [2]: 91.1%
- viability, T/C [3]: 93%
- viability, T/C [4]: 102%
- viability, T/C [5]: 102%
- viability, T/C [6]: 95.7%
- viability, T/C [7]: 76.7%
- viability, T/C [8]: 84.3%
- viability, T/C [9]: 71.6%
- viability, T/C [10]: 70.1%
- viability, T/C [11]: 57.8%
- viability, T/C [12]: 55.1%
- viability, T/C [13]: 75.6%
- viability, T/C [14]: 77.7%
- viability, T/C [15]: 78%
- viability, T/C [16]: 78%
- viability, T/C [17]: 84.1%
- viability, T/C [18]: 76.2%
- viability, T/C [19]: 67.6%
- viability, T/C [20]: 79.6%
- viability, T/C [21]: 65.6%
- viability, T/C [22]: 71.2%
- viability, T/C [23]: 74.4%
- viability, T/C [24]: 68.4%
- viability, T/C [25]: 80%
- viability, T/C [26]: 79.1%
- viability, T/C [27]: 75.6%
- viability, T/C [28]: 66.7%
- viability, T/C [29]: 87.8%
- viability, T/C [30]: 59.6%
- viability, T/C [31]: 71%
- viability, T/C [32]: 85.3%
- viability, T/C [33]: 74.8%
- viability, T/C [34]: 75.2%
- viability, T/C [35]: 65%
- viability, T/C [36]: 57.1%
